Source: patent US11370770B2, “3-arylindazoles as selective MEK4 inhibitors” (priority 2019, dated 2022)

Tests used:
PHKG2 = PHKG2 (Homo sapiens (Human), UniProt P15735); test: KINOMEscan binding assay; conditions: percent of control
MEK3 [1] = molecular target: T1, MEK3 (Homo sapiens (Human), UniProt P46734); test: KINOMEscan binding assay; conditions: percent of control
NLK = NLK (Homo sapiens (Human), UniProt Q9UBE8); test: KINOMEscan binding assay; conditions: percent of control
SIK2 = SIK2 (Homo sapiens (Human), UniProt Q9H0K1); test: KINOMEscan binding assay; conditions: percent of control
MLK2 = MLK2 (Homo sapiens (Human), UniProt Q02779); test: KINOMEscan binding assay; conditions: percent of control
IKK-EPSILON = IKK-EPSILON (Homo sapiens (Human), UniProt Q14164); test: KINOMEscan binding assay; conditions: percent of control
CHEK2 = CHEK2 (Homo sapiens (Human), UniProt O96017); test: KINOMEscan binding assay; conditions: percent of control
FGFR1 = FGFR1 (Homo sapiens (Human), UniProt P11362); test: KINOMEscan binding assay; conditions: percent of control
Sequence of FGFR1 (P11362 22-822): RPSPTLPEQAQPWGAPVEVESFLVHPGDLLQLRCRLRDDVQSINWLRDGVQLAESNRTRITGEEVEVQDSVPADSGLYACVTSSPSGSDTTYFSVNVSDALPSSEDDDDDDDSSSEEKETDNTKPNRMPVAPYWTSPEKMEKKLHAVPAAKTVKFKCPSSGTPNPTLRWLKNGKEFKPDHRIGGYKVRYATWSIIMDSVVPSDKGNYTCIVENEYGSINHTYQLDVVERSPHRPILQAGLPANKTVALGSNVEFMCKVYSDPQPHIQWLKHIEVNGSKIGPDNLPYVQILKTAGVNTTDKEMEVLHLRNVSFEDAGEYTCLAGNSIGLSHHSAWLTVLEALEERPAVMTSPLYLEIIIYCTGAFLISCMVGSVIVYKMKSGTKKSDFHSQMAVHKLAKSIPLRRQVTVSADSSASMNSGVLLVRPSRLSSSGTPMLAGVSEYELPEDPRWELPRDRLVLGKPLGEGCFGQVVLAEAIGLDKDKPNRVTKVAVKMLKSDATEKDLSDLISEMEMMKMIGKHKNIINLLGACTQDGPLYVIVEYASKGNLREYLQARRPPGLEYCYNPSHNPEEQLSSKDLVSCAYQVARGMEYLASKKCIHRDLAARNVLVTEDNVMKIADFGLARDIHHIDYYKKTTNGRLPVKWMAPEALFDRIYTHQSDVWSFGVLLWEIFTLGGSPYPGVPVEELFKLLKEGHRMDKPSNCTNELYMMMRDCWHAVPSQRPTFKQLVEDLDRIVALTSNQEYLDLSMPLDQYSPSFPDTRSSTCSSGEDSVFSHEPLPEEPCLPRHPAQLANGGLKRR

MEK6 = MEK6 (Homo sapiens (Human), UniProt P52564); test: KINOMEscan binding assay; conditions: percent of control
KIT(L576P) = KIT(L576P) (Homo sapiens (Human), UniProt P10721, L576P); test: KINOMEscan binding assay; conditions: percent of control
Sequence of KIT(L576P) (P10721 26-976 L576P): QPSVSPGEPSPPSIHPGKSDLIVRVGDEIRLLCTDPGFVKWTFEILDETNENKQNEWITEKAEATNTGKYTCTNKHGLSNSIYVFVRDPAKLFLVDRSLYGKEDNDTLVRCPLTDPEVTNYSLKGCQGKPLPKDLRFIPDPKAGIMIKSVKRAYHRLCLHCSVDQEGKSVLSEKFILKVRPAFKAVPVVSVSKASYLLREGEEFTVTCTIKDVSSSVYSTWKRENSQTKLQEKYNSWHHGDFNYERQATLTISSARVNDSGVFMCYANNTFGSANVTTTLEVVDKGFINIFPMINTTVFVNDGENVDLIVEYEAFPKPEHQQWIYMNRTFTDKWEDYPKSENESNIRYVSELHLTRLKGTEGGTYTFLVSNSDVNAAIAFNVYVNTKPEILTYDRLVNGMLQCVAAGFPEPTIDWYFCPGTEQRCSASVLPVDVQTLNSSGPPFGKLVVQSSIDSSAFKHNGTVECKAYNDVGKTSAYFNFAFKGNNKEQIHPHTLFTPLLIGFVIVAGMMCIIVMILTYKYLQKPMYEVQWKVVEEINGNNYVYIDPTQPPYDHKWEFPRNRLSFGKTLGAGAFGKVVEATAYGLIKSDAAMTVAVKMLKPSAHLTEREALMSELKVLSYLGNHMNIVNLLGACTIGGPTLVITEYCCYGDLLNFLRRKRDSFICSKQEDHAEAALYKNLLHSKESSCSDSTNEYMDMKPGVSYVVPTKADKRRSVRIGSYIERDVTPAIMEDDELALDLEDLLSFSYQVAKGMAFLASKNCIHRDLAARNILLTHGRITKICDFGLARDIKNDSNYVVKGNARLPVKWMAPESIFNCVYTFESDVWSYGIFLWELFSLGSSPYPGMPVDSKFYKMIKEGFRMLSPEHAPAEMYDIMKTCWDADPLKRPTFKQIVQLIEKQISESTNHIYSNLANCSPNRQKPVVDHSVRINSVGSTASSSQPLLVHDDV

MKNK2 = MKNK2 (Homo sapiens (Human), UniProt Q9HBH9); test: KINOMEscan binding assay; conditions: percent of control
MAP3K4 = MAP3K4 (Homo sapiens (Human), UniProt Q9Y6R4); test: KINOMEscan binding assay; conditions: percent of control
CAMK4 = CAMK4 (Homo sapiens (Human), UniProt Q16566); test: KINOMEscan binding assay; conditions: percent of control
MEK5 = MEK5 (Homo sapiens (Human), UniProt Q13163); test: KINOMEscan binding assay; conditions: percent of control
TNIK = TNIK (Homo sapiens (Human), UniProt Q9UKE5); test: KINOMEscan binding assay; conditions: percent of control
[2] = molecular target: (Homo sapiens (Human), UniProt P49674); test: KINOMEscan binding assay; conditions: CSML1E; percent of control
MUSK = MUSK (Homo sapiens (Human), UniProt O15146); test: KINOMEscan binding assay; conditions: percent of control
AAK1 = AAK1 (Homo sapiens (Human), UniProt Q2M2I8); test: KINOMEscan binding assay; conditions: percent of control
EPHA6 = EPHA6 (Homo sapiens (Human), UniProt Q9UF33); test: KINOMEscan binding assay; conditions: percent of control
CDC2L1 = CDC2L1 (Homo sapiens (Human), UniProt P21127); test: KINOMEscan binding assay; conditions: percent of control
CDK9 = CDK9 (Homo sapiens (Human), UniProt P50750); test: KINOMEscan binding assay; conditions: percent of control
MEK2 = MEK2 (Homo sapiens (Human), UniProt P36507); test: KINOMEscan binding assay; conditions: percent of control
Sequence of MEK2 (P36507 whole entry): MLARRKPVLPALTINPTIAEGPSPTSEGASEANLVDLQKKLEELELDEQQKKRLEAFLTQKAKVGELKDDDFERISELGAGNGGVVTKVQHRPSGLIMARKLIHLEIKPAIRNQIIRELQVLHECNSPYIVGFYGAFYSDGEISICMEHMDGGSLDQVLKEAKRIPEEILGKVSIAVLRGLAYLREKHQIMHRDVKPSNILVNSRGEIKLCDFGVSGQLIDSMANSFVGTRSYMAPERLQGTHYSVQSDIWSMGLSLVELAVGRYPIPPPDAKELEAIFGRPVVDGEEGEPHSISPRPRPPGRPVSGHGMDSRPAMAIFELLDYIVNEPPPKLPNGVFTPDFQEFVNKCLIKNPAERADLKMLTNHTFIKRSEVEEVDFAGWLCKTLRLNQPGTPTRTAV

[3] = molecular target: ABL1(T3151)-phosphorylated (Homo sapiens (Human), UniProt P00519, T315I); test: KINOMEscan binding assay; conditions: percent of control
MARK4 = MARK4 (Homo sapiens (Human), UniProt Q96L34); test: KINOMEscan binding assay; conditions: percent of control
RAF1 = RAF1 (Homo sapiens (Human), UniProt P04049); test: KINOMEscan binding assay; conditions: percent of control
HIPK1 = HIPK1 (Homo sapiens (Human), UniProt Q86Z02); test: KINOMEscan binding assay; conditions: percent of control
ERK2 = ERK2 (Homo sapiens (Human), UniProt P28482); test: KINOMEscan binding assay; conditions: percent of control
PRKCD = PRKCD (Homo sapiens (Human), UniProt Q05655); test: KINOMEscan binding assay; conditions: percent of control
PCTK3 = PCTK3 (Homo sapiens (Human), UniProt Q07002); test: KINOMEscan binding assay; conditions: percent of control
MRCKA = MRCKA (Homo sapiens (Human), UniProt Q5VT25); test: KINOMEscan binding assay; conditions: percent of control
VEGFR2 = VEGFR2 (Homo sapiens (Human), UniProt P35968); test: KINOMEscan binding assay; conditions: percent of control
MEK3 [4] = molecular target: T1, MEK3; test: MEK family profiling ADP-Glo, MEK3; format: biochemical; conditions: p38α substrate; 0.6 μM ATP; read-out: IC50 MEK isoform 3
[5] = molecular target: (Homo sapiens (Human), UniProt P49761); test: KINOMEscan binding assay; conditions: C;L3; percent of control
TRKC = TRKC (Homo sapiens (Human), UniProt Q16288); test: KINOMEscan binding assay; conditions: percent of control
Sequence of TRKC (Q16288 32-839): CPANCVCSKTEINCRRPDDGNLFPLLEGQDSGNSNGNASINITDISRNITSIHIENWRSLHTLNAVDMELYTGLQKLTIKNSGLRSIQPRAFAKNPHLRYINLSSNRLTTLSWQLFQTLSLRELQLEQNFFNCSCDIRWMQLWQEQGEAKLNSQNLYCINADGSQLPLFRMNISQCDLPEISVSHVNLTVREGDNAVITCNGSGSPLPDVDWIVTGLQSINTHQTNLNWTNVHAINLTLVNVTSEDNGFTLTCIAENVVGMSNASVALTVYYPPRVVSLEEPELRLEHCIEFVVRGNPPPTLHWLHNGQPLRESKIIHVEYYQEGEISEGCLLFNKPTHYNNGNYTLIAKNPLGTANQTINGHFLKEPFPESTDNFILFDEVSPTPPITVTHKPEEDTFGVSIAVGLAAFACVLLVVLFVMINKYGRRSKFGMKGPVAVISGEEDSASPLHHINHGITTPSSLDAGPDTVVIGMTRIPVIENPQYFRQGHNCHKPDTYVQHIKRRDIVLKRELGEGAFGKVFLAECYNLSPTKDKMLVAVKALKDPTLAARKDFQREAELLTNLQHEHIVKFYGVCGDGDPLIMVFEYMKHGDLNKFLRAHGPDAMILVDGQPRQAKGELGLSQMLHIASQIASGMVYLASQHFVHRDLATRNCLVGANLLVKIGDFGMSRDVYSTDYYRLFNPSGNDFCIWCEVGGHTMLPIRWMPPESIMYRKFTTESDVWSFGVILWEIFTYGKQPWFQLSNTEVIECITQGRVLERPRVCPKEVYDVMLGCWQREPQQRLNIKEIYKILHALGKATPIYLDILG

[6] = molecular target: EGFR(L747-S752DEL, P753S) (Homo sapiens (Human), UniProt P00533, DEL747-752/P753S); test: KINOMEscan binding assay; conditions: percent of control
EPHB4 = EPHB4 (Homo sapiens (Human), UniProt P54760); test: KINOMEscan binding assay; conditions: percent of control
Sequence of EPHB4 (P54760 16-987): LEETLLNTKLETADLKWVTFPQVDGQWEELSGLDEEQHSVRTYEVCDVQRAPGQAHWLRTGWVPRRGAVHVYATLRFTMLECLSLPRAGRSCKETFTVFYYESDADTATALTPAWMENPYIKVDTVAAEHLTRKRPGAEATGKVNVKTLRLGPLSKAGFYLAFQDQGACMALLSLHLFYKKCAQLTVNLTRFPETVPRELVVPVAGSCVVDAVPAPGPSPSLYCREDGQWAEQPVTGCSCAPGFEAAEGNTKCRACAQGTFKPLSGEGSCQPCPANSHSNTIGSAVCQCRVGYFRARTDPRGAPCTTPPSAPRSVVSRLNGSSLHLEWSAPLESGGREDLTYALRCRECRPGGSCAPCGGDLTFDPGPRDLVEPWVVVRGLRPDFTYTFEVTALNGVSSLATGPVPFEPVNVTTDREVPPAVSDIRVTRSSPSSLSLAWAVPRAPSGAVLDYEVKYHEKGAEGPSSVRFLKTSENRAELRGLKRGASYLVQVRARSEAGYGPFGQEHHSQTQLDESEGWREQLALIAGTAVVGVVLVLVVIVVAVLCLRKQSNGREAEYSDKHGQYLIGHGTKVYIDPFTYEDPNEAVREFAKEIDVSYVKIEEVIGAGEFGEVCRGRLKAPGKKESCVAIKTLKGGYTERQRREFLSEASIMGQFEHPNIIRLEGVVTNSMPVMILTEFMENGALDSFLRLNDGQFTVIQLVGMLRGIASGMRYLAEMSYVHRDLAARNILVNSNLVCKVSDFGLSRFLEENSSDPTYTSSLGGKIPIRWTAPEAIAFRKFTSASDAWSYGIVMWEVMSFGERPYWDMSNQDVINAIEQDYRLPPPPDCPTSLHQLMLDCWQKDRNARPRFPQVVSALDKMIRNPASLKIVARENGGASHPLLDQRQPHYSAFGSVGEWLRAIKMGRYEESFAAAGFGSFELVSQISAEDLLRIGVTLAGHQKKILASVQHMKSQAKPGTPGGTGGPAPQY

PRP6 = test: KINOMEscan binding assay; conditions: percent of control
SNARK = SNARK (Homo sapiens (Human), UniProt Q9H093); test: KINOMEscan binding assay; conditions: percent of control
MKK7 = MKK7 (Homo sapiens (Human), UniProt O14733); test: KINOMEscan binding assay; conditions: percent of control
Sequence of MKK7 (O14733 whole entry): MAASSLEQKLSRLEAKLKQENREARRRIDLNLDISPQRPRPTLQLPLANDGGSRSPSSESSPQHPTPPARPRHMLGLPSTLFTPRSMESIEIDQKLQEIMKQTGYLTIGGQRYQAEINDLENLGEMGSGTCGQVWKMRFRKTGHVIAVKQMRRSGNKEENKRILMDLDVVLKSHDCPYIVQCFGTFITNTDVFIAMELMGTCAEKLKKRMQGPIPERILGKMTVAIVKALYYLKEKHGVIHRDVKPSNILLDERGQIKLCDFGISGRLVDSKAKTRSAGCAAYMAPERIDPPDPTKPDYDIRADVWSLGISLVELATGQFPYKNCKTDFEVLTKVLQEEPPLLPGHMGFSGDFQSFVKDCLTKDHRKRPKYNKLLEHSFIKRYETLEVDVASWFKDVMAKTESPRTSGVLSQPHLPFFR

CSNK1A1L = CSNK1A1L (Homo sapiens (Human), UniProt Q8N752); test: KINOMEscan binding assay; conditions: percent of control
Sequence of CSNK1A1L (Q8N752 whole entry): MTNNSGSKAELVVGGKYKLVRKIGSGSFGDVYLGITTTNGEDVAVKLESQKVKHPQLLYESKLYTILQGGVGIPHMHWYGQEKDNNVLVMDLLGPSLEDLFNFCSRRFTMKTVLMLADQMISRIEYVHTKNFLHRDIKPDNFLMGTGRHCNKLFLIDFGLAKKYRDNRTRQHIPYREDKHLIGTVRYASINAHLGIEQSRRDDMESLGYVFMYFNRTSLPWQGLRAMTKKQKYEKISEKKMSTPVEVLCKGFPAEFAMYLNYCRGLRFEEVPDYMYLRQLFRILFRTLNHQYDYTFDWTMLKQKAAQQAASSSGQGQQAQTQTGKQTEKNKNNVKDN

EPHA2 = EPHA2 (Homo sapiens (Human), UniProt P29317); test: KINOMEscan binding assay; conditions: percent of control
ZAP70 = ZAP70 (Homo sapiens (Human), UniProt P43403); test: KINOMEscan binding assay; conditions: percent of control

T1 sequence (P46734 whole entry): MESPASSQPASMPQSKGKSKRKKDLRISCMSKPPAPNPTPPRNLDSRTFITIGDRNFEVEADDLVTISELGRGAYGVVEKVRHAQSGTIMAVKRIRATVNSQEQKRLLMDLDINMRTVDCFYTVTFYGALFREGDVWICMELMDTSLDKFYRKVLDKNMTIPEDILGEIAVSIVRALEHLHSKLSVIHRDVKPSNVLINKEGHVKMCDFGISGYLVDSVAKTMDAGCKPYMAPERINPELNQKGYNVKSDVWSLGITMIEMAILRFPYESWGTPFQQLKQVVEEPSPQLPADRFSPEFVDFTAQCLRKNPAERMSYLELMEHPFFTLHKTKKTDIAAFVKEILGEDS

O=C(O)c1cccc(-c2n[nH]c3ccccc23)c1 [Compound 6a, 3-(1H-indazol-3-yl)benzoic Acid]
% Ctrl @ 10000 nM (PHKG2): 98 % Ctrl
% Ctrl @ 10000 nM (MEK3 [1]): 13 % Ctrl
% Ctrl @ 10000 nM (NLK): 97 % Ctrl
% Ctrl @ 10000 nM (SIK2): 93 % Ctrl
% Ctrl @ 10000 nM (MLK2): 100 % Ctrl
% Ctrl @ 10000 nM (IKK-EPSILON): 48 % Ctrl
% Ctrl @ 10000 nM (CHEK2): 76 % Ctrl
% Ctrl @ 10000 nM (FGFR1): 100 % Ctrl
% Ctrl @ 10000 nM (MEK6): 91 % Ctrl
% Ctrl @ 10000 nM (KIT(L576P)): 59 % Ctrl
% Ctrl @ 10000 nM (MKNK2): 66 % Ctrl
% Ctrl @ 10000 nM (MAP3K4): 90 % Ctrl
% Ctrl @ 10000 nM (CAMK4): 100 % Ctrl
% Ctrl @ 10000 nM (MEK5): 88 % Ctrl
% Ctrl @ 10000 nM (TNIK): 65 % Ctrl
% Ctrl @ 10000 nM [2]: 88 % Ctrl
% Ctrl @ 10000 nM (MUSK): 100 % Ctrl
% Ctrl @ 10000 nM (AAK1): 87 % Ctrl
% Ctrl @ 10000 nM (EPHA6): 97 % Ctrl
% Ctrl @ 10000 nM (CDC2L1): 100 % Ctrl
% Ctrl @ 10000 nM (CDK9): 95 % Ctrl
% Ctrl @ 10000 nM (MEK2): 60 % Ctrl
% Ctrl @ 10000 nM [3]: 40 % Ctrl
% Ctrl @ 10000 nM (MARK4): 97 % Ctrl
% Ctrl @ 10000 nM (RAF1): 100 % Ctrl
% Ctrl @ 10000 nM (HIPK1): 43 % Ctrl
% Ctrl @ 10000 nM (ERK2): 96 % Ctrl
% Ctrl @ 10000 nM (PRKCD): 100 % Ctrl
% Ctrl @ 10000 nM (PCTK3): 100 % Ctrl
% Ctrl @ 10000 nM (MRCKA): 95 % Ctrl
% Ctrl @ 10000 nM (VEGFR2): 20 % Ctrl
IC50 (MEK3 [4]): 16 µM
% Ctrl @ 10000 nM [5]: 94 % Ctrl
% Ctrl @ 10000 nM (TRKC): 39 % Ctrl
% Ctrl @ 10000 nM [6]: 85 % Ctrl
% Ctrl @ 10000 nM (EPHB4): 89 % Ctrl
% Ctrl @ 10000 nM (PRP6): 76 % Ctrl
% Ctrl @ 10000 nM (SNARK): 68 % Ctrl
% Ctrl @ 10000 nM (MKK7): 66 % Ctrl
% Ctrl @ 10000 nM (CSNK1A1L): 87 % Ctrl
% Ctrl @ 10000 nM (EPHA2): 92 % Ctrl
% Ctrl @ 10000 nM (ZAP70): 70 % Ctrl

O=C(O)c1ccc(-c2n[nH]c3cc(F)ccc23)cc1 [Compound 6ff, 4-(6-fluoro-2H-indazol-3-yl)benzoic Acid]
% Ctrl @ 10000 nM (PHKG2): 89 % Ctrl
% Ctrl @ 10000 nM (MEK3 [1]): 1.6 % Ctrl
% Ctrl @ 10000 nM (NLK): 99 % Ctrl
% Ctrl @ 10000 nM (SIK2): 100 % Ctrl
% Ctrl @ 10000 nM (MLK2): 95 % Ctrl
% Ctrl @ 10000 nM (IKK-EPSILON): 43 % Ctrl
% Ctrl @ 10000 nM (CHEK2): 39 % Ctrl
% Ctrl @ 10000 nM (FGFR1): 99 % Ctrl
% Ctrl @ 10000 nM (MEK6): 78 % Ctrl
% Ctrl @ 10000 nM (KIT(L576P)): 11 % Ctrl
% Ctrl @ 10000 nM (MKNK2): 43 % Ctrl
% Ctrl @ 10000 nM (MAP3K4): 100 % Ctrl
% Ctrl @ 10000 nM (CAMK4): 100 % Ctrl
% Ctrl @ 10000 nM (MEK5): 44 % Ctrl
% Ctrl @ 10000 nM (TNIK): 3.6 % Ctrl
% Ctrl @ 10000 nM [2]: 100 % Ctrl
% Ctrl @ 10000 nM (MUSK): 65 % Ctrl
% Ctrl @ 10000 nM (AAK1): 55 % Ctrl
% Ctrl @ 10000 nM (EPHA6): 99 % Ctrl
% Ctrl @ 10000 nM (CDC2L1): 100 % Ctrl
% Ctrl @ 10000 nM (CDK9): 98 % Ctrl
% Ctrl @ 10000 nM (MEK2): 61 % Ctrl
% Ctrl @ 10000 nM [3]: 12 % Ctrl
% Ctrl @ 10000 nM (MARK4): 86 % Ctrl
% Ctrl @ 10000 nM (RAF1): 100 % Ctrl
% Ctrl @ 10000 nM (HIPK1): 48 % Ctrl
% Ctrl @ 10000 nM (ERK2): 100 % Ctrl
% Ctrl @ 10000 nM (PRKCD): 100 % Ctrl
% Ctrl @ 10000 nM (PCTK3): 100 % Ctrl
% Ctrl @ 10000 nM (MRCKA): 89 % Ctrl
% Ctrl @ 10000 nM (VEGFR2): 3.5 % Ctrl
IC50 (MEK3 [4]): > 27 µM
% Ctrl @ 10000 nM [5]: 100 % Ctrl
% Ctrl @ 10000 nM (TRKC): 11 % Ctrl
% Ctrl @ 10000 nM [6]: 81 % Ctrl
% Ctrl @ 10000 nM (EPHB4): 100 % Ctrl
% Ctrl @ 10000 nM (PRP6): 52 % Ctrl
% Ctrl @ 10000 nM (SNARK): 53 % Ctrl
% Ctrl @ 10000 nM (MKK7): 52 % Ctrl
% Ctrl @ 10000 nM (CSNK1A1L): 93 % Ctrl
% Ctrl @ 10000 nM (EPHA2): 100 % Ctrl
% Ctrl @ 10000 nM (ZAP70): 73 % Ctrl
